This is an account of results in patent US20260250325A1, “Antiviral Polypeptide Membrane Fusion Inhibitor, and Preparation Method and Application Thereof” (priority 2025, published 2026).

Where a SMILES comes first, the peptide text is derived from it. The star is where a group is joined. Succinyl(4-O-cholesteryl) = CC(C)CCC[C@@H](C)[C@H]1CC[C@H]2[C@@H]3CC=C4C[C@@H](OC(=O)CCC(=O)*)CC[C@]4(C)[C@H]3CC[C@]12C; X1 = CC(C)CCCC(C)C1CCC2C3CC=C4CC(OC(=O)CCC(=O)*)CCC4(C)C3CCC12C

The assay has as its system RSV A long virus strain. Format: cell-based. Particulars: RSV A long virus strain, HEp-2 cells, plaque reduction, 1 day; read-out: IC50. In outline:
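Plaque reduction in HEp-2 cells: virus (100 PFU/well) and serially diluted compound (8 concentrations) mixed 1 h, adsorbed 2 h, then overlaid with 0.8% CMC medium plus compound for 1 day at 37 °C. Spots counted after anti-RSV immunostaining; IC50 from normalized inhibition, CC50 from viability data.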
The term IC50 denotes the midpoint of a concentration-inhibition curve. On to `CC[C@H](C)[C@H](NC(=O)[C@H](CO)NC(=O)[C@H](C)NC(=O)[C@H](CC(=O)O)NC(=O)[C@H](Cc1ccccc1)NC(=O)[C@H](CCC(=O)O)NC(=O)[C@H](CC(=O)O)NC(=O)[C@H](Cc1c[nH]c2ccccc12)NC(C)=O)C(=O)N[C@@H](CO)C(=O)N[C@@H](CCC(N)=O)C(=O)N[C@H](C(=O)N[C@@H](CC(N)=O)C(=O)N[C@@H](CCC(=O)O)C(=O)N[C@@H](CCCCN)C(=O)N[C@H](C(=O)N[C@@H](CC(N)=O)C(=O)N[C@@H](CCC(N)=O)C(=O)N[C@@H](CO)C(=O)N[C@@H](CC(C)C)C(=O)N[C@@H](CCC(=O)O)C(=O)N[C@@H](CCC(=O)O)C(=O)N[C@H](C(=O)N[C@@H](CCCNC(=N)N)C(=O)N[C@@H](CCCCN)C(=O)N[C@@H](CO)C(=O)N[C@@H](CC(=O)O)C(=O)N[C@@H](CCC(=O)O)C(=O)N[C@@H](CC(C)C)C(=O)N[C@@H](CC(C)C)C(=O)N[C@@H](Cc1c[nH]cn1)C(=O)N[C@@H](CC(N)=O)C(=O)N[C@@H](CCC(=O)O)C(=O)N[C@@H](C)C(=O)N[C@@H](C)C(=O)N[C@@H](C)C(=O)N[C@@H](CCCCN)C(=O)N[C@@H](CCCCNC(=O)CCC(=O)O[C@H]1CC[C@@]2(C)C(=CC[C@H]3[C@@H]4CC[C@H]([C@H](C)CCCC(C)C)[C@@]4(C)CC[C@@H]32)C1)C(N)=O)[C@@H](C)CC)[C@@H](C)CC)C(C)C` [Compound 45] (Ac-WDEFDASISQVNEKINQSLEEIRKSDELLHNEAAAKK(Succinyl(4-O-cholesteryl))-NH2), for which the IC50 is 12.2 nM.

`CC[C@H](C)[C@H](NC(=O)[C@H](CO)NC(=O)[C@H](C)NC(=O)[C@H](CC(=O)O)NC(=O)[C@H](Cc1ccccc1)NC(=O)[C@H](CCC(=O)O)NC(=O)[C@H](CC(=O)O)NC(=O)[C@H](Cc1c[nH]c2ccccc12)NC(C)=O)C(=O)N[C@@H](CCC(=O)O)C(=O)N[C@@H](CCC(=O)O)C(=O)N[C@H](C(=O)N[C@@H](CC(N)=O)C(=O)N[C@@H](CCCNC(=N)N)C(=O)N[C@@H](CCCNC(=N)N)C(=O)N[C@H](C(=O)N[C@@H](CCC(=O)O)C(=O)N[C@@H](CCC(=O)O)C(=O)N[C@@H](CO)C(=O)N[C@@H](CC(C)C)C(=O)N[C@@H](CCCNC(=N)N)C(=O)N[C@@H](CCCNC(=N)N)C(=O)N[C@H](C(=O)N[C@@H](CCC(=O)O)C(=O)N[C@@H](CCC(=O)O)C(=O)N[C@@H](CO)C(=O)N[C@@H](CC(=O)O)C(=O)N[C@@H](CCCNC(=N)N)C(=O)N[C@@H](CCCNC(=N)N)C(=O)N[C@@H](CC(C)C)C(=O)N[C@@H](CCC(=O)O)C(=O)N[C@@H](CCC(=O)O)C(=O)N[C@H](C(=O)N[C@@H](CCC(=O)O)C(=O)N[C@@H](C)C(=O)N[C@@H](C)C(=O)N[C@@H](C)C(=O)N[C@@H](CCCCN)C(=O)N[C@@H](CCCCNC(=O)CCC(=O)O[C@H]1CC[C@@]2(C)C(=CC[C@H]3[C@@H]4CC[C@H]([C@H](C)CCCC(C)C)[C@@]4(C)CC[C@@H]32)C1)C(N)=O)C(C)C)[C@@H](C)CC)[C@@H](C)CC)C(C)C` [Compound 43] (Ac-WDEFDASIEEVNRRIEESLRRIEESDRRLEEVEAAAKK(Succinyl(4-O-cholesteryl))-NH2): the half-inhibitory concentration (IC50) amounted to 18.3 nM.

Take “Ac-WDEFDASISQVNEKINQSLEEIRKSDELLHNVNALEAAAKK(Succinyl(4-O-cholesteryl))-NH2 [Compound 38]”: the IC50 came to 14.6 nM.

With `CC[C@H](C)[C@H](NC(=O)[C@H](CCCCN)NC(=O)[C@H](CCCCN)NC(=O)[C@H](CC(C)C)NC(=O)[C@H](CO)NC(=O)[C@H](CCC(=O)O)NC(=O)[C@H](CCC(=O)O)NC(=O)[C@@H](NC(=O)[C@H](CCCCN)NC(=O)[C@H](CCCCN)NC(=O)[C@H](CC(N)=O)NC(=O)[C@@H](NC(=O)[C@H](CCC(=O)O)NC(=O)[C@H](CCC(=O)O)NC(=O)[C@@H](NC(=O)[C@H](CCCCN)NC(=O)[C@H](CCCCN)NC(=O)[C@H](CCCCN)NC(=O)[C@H](CC(=O)O)NC(=O)[C@H](Cc1ccccc1)NC(=O)[C@H](CCC(=O)O)NC(=O)[C@H](CC(=O)O)NC(C)=O)[C@@H](C)CC)C(C)C)[C@@H](C)CC)C(=O)N[C@@H](CCC(=O)O)C(=O)N[C@@H](CCC(=O)O)C(=O)N[C@@H](CO)C(=O)N[C@@H](CC(=O)O)C(=O)N[C@@H](CCCCN)C(=O)N[C@@H](CCCCN)C(=O)N[C@@H](CC(C)C)C(=O)N[C@@H](CCC(=O)O)C(=O)N[C@@H](CCC(=O)O)C(=O)N[C@H](C(=O)NCC(=O)N[C@@H](CO)C(=O)NCC(=O)N[C@@H](CO)C(=O)NCC(=O)N[C@@H](CCCCNC(=O)CCC(=O)O[C@H]1CC[C@@]2(C)C(=CC[C@H]3[C@@H]4CC[C@H]([C@H](C)CCCC(C)C)[C@@]4(C)CC[C@@H]32)C1)C(N)=O)C(C)C` [Compound 15] (Ac-DEFDKKKIEEVNKKIEESLKKIEESDKKLEEVGSGSGK(Succinyl(4-O-cholesteryl))-NH2), the IC50 was determined as 10.4 nM.

Turning to “Ac-LVKKIDEFDASISQVNEKINQSLEEIRKSDELLHNVGSGSGK(Succinyl(4-O-cholesteryl))-NH2 [Compound 29]”, the concentration for half-maximal inhibition (IC50) was 19.3 nM.

As for `CC[C@H](C)[C@H](NC(=O)[C@H](CCCCN)NC(=O)[C@H](CCC(=O)O)NC(=O)[C@H](CC(C)C)NC(=O)[C@H](CO)NC(=O)[C@H](CCC(N)=O)NC(=O)[C@H](CC(N)=O)NC(=O)[C@@H](NC(=O)[C@H](CCCCN)NC(=O)[C@H](CCC(=O)O)NC(=O)[C@H](CC(N)=O)NC(=O)[C@@H](NC(=O)[C@H](CCC(N)=O)NC(=O)[C@H](CO)NC(=O)[C@H](C)NC(=O)[C@H](CC(=O)O)NC(=O)[C@H](Cc1ccccc1)NC(=O)[C@@H](NC(=O)[C@H](CC(C)C)NC(=O)[C@H](CCC(=O)O)NC(=O)[C@H](CC(=O)O)NC(=O)[C@H](Cc1ccc(O)cc1)NC(C)=O)C(C)C)C(C)C)[C@@H](C)CC)C(=O)N[C@@H](CCCNC(=N)N)C(=O)N[C@@H](CCCCN)C(=O)N[C@@H](CO)C(=O)N[C@@H](CC(=O)O)C(=O)N[C@@H](CCC(=O)O)C(=O)N[C@@H](CC(C)C)C(=O)N[C@@H](CC(C)C)C(=O)N[C@@H](Cc1c[nH]cn1)C(=O)N[C@@H](CC(N)=O)C(=O)N[C@H](C(=O)NCC(=O)N[C@@H](CO)C(=O)NCC(=O)N[C@@H](CO)C(=O)NCC(=O)N[C@@H](CCCCNC(=O)CCC(=O)O[C@H]1CC[C@@]2(C)C(=CC[C@H]3[C@@H]4CC[C@H]([C@H](C)CCCC(C)C)[C@@]4(C)CC[C@@H]32)C1)C(N)=O)C(C)C` [Compound 25] (Ac-YDELVFDASQVNEKINQSLEKIRKSDELLHNVGSGSGK(Succinyl(4-O-cholesteryl))-NH2), the IC50 was 28.7 nM.

For the compound `CC[C@H](C)[C@H](NC(=O)[C@H](CCCCN)NC(=O)[C@H](CCCCN)NC(=O)[C@H](CC(C)C)NC(=O)[C@H](CO)NC(=O)[C@H](CCC(N)=O)NC(=O)[C@H](CC(N)=O)NC(=O)[C@@H](NC(=O)[C@H](CCCCN)NC(=O)[C@H](CCCCN)NC(=O)[C@H](CC(=O)O)NC(=O)[C@H](Cc1ccccc1)NC(=O)[C@H](CCC(=O)O)NC(=O)[C@@H](NC(=O)[C@H](CCCCN)NC(=O)[C@H](CCCCN)NC(=O)[C@H](CC(N)=O)NC(=O)[C@@H](NC(=O)[C@H](CC(C)C)NC(=O)[C@H](CCC(=O)O)NC(=O)[C@H](CC(=O)O)NC(=O)[C@H](CO)NC(C)=O)C(C)C)[C@@H](C)CC)[C@@H](C)CC)C(=O)N[C@@H](CCC(=O)O)C(=O)N[C@@H](CCC(=O)O)C(=O)N[C@@H](CO)C(=O)N[C@@H](CC(=O)O)C(=O)N[C@@H](CCCCN)C(=O)N[C@@H](CCCCN)C(=O)N[C@@H](CCCCN)C(=O)N[C@@H](CC(C)C)C(=O)N[C@@H](CCC(=O)O)C(=O)N[C@@H](C)C(=O)N[C@@H](C)C(=O)N[C@@H](C)C(=O)N[C@@H](CCCCN)C(=O)N[C@@H](CCCCN)C(N)=O` [Compound 51] (Ac-SDELVNKKIEFDKKINQSLKKIEESDKKKLEAAAKK-NH2), the IC50 was found to be 9.9 nM.

Take `CC[C@H](C)[C@H](NC(=O)[C@H](CCCCN)NC(=O)[C@H](CCCCN)NC(=O)[C@H](CC(C)C)NC(=O)[C@H](CO)NC(=O)[C@H](CCC(=O)O)NC(=O)[C@H](CCC(=O)O)NC(=O)[C@@H](NC(=O)[C@H](CCCCN)NC(=O)[C@H](CCCCN)NC(=O)[C@H](CC(N)=O)NC(=O)[C@@H](NC(=O)[C@H](CCC(=O)O)NC(=O)[C@H](CCC(=O)O)NC(=O)[C@@H](NC(=O)[C@H](CCCCN)NC(=O)[C@H](CCCCN)NC(=O)[C@H](CC(=O)O)NC(=O)[C@H](Cc1ccccc1)NC(=O)[C@H](CCC(=O)O)NC(=O)[C@H](CC(=O)O)NC(C)=O)[C@@H](C)CC)C(C)C)[C@@H](C)CC)C(=O)N[C@@H](CCC(=O)O)C(=O)N[C@@H](CCC(=O)O)C(=O)N[C@@H](CO)C(=O)N[C@@H](CC(=O)O)C(=O)N[C@@H](CCCCN)C(=O)N[C@@H](CCCCN)C(=O)N[C@@H](CC(C)C)C(=O)N[C@@H](CCC(=O)O)C(=O)N[C@@H](CCC(=O)O)C(=O)N[C@H](C(=O)N[C@@H](CCC(=O)O)C(=O)N[C@@H](C)C(=O)N[C@@H](C)C(=O)N[C@@H](C)C(=O)N[C@@H](CCCCN)C(=O)N[C@@H](CCCCNC(=O)CCC(=O)OC1CCC2(C)C(=CCC3C2CCC2(C)C(C(C)CCCC(C)C)CCC32)C1)C(N)=O)C(C)C` (some centres unmarked) [Compound 21] (Ac-DEFDKKIEEVNKKIEESLKKIEESDKKLEEVEAAAKK(X1)-NH2): the IC50 amounted to 14.6 nM.
